One experiment has as its target T1, STAT6 (Homo sapiens, UniProt P42226).
T1 construct: stably transfected HaCaT keratinocyte cell line, which expresses NanoLuc luciferase reporter gene under the transcriptional control of the STAT6 responsive promoter; endogenous in cells; host or cells: HaCaT keratinocyte reporter cell line (stably transfected with a NanoLuc reporter)
T1 sequence (P42226 1-847): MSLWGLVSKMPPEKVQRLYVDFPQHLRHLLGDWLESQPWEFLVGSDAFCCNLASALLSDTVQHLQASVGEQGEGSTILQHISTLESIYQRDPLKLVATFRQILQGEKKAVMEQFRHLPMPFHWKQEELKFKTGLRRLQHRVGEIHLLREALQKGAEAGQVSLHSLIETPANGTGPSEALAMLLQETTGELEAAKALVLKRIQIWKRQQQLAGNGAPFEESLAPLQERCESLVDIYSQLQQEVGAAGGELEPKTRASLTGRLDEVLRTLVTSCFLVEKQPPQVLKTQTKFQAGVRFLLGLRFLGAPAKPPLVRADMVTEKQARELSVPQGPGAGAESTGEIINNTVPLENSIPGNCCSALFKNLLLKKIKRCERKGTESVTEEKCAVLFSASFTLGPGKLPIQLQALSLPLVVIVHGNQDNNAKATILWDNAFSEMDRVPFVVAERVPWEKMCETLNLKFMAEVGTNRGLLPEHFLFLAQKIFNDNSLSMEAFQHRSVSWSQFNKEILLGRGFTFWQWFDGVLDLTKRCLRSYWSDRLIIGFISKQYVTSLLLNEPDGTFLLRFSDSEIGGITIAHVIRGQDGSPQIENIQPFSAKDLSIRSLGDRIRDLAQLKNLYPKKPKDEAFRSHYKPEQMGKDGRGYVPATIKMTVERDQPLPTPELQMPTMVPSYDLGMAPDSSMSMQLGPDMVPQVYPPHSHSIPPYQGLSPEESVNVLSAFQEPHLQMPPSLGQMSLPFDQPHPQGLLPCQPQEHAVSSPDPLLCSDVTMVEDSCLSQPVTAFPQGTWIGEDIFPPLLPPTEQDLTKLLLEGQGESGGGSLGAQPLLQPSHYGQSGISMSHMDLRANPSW
The experiment can be described thus: STAT6 Reporter Luciferase Assay (IL-13 stimulated HaCaT keratinocyte NanoLuc reporter cells). The format is cell-based. To be noted: read-out: Reporter EC50. The essentials: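 Cells were plated overnight, washed, exposed to compound for two hours, stimulated with IL-13 (0.12 nM final) for four hours at 37 °C, and then lysed with Nano-Glo substrate for 15 min before luminescence reading.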

In experiment [1] the test system is CCL17 secretion in peripheral human whole blood. The experiment can be described thus: Human Whole Blood (HWB) CCL17 TR-FRET Assay (IL-13 stimulated CCL17 secretion). It counts as cell-based. The note with it: Homo sapiens, 48 h. The essentials:
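Heparinized human whole blood was preincubated with compound (11-point, 3-fold series) for 2 h at 37°C, then stimulated with IL-13 (10 ng/mL final) for 48 h. Serum CCL17 was measured by TR-FRET sandwich immunoassay (665/615 nm ratio) after 16 h at room temperature, giving IC50.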
On the technique in general: In TR-FRET formats the signal depends on donor and acceptor labels being close together.

[2] abbreviates: STAT6 NanoLuc luciferase reporter, IL-13 stimulated HaCaT keratinocyte cells.
Where [3] appears, read: inhibition of CCL17 secretion in human whole blood, 10 ng/mL IL13, 48 hours.
[4] abbreviates: IL-13 stimulated HaCaT STAT6 NanoLuc reporter cells.
[5] abbreviates: human whole blood, 10 ng/mL IL13, 48 hours.
Setting [6] is: human whole blood, IL-13 stimulated.

Like-named read-outs stand apart in the source and are kept apart here.

Take `CC1c2c(C(=O)NCc3ccc(NC(=O)N(C)C)cc3)nn(C)c2CCN1c1ccc(C(=O)N(C)C)cn1` (racemic) [Example 55, rac-(R)-5-(5-(dimethylcarbamoyl)pyridin-2-yl)-N-(4-(3,3-dimethylureido)benzyl)-1,4-dimethyl-4,5,6,7-tetrahydro-1H-pyrazolo[4,3-c]pyridine-3-carboxamide]: the EC50 at STAT6 (setting [2]) is 10 nM. This molecule also showed an IC50 in experiment [1] (setting [3]) of 12 nM.

Consider `CC(C)n1nc(C(=O)NCc2ccc(NC(=O)N3CCN(C)CC3)c(F)c2)c2c1[C@@H](C)CN(c1ccc(C(=O)N3Cc4cccnc4C3)cc1)C2` [Example 711, (S)-5-(4-(6,7-dihydro-5H-pyrrolo[3,4-b]pyridine-6-carbonyl)phenyl)-N-(3-fluoro-4-(4-methylpiperazine-1-carboxamido)benzyl)-1-isopropyl-7-methyl-4,5,6,7-tetrahydro-1H-pyrazolo[4,3-c]pyridine-3-carboxamide], for which the EC50 at STAT6 (setting [4]) was determined as 0.5 nM. The same molecule came in with a half-maximal inhibitory concentration (IC50) in experiment [1] (human whole blood, IL-13 10 ng/mL) of 18 nM.

As to `CC(C)n1nc(C(=O)NCc2ccc(NC(=O)N3CCNCC3)cc2Cl)c2c1[C@@H](C)CN(c1ccc(C(=O)N(C)C)cc1)C2` [Example 630, (S)-N-(2-chloro-4-(piperazine-1-carboxamido)benzyl)-5-(4-(dimethylcarbamoyl)phenyl)-1-isopropyl-7-methyl-4,5,6,7-tetrahydro-1H-pyrazolo[4,3-c]pyridine-3-carboxamide], the EC50 at STAT6 (setting [4]) amounted to 9 nM. In addition, in experiment [1] (setting [5]), half-maximal inhibition (IC50) required 55 nM.

Turning to `CC(C)n1nc(C(=O)NCc2ccc(NC(=O)N3CCC4(CCNCC4)CC3)cc2)c2c1[C@@H](C)CN(c1ccc(C(=O)N(C)C)cc1)C2` [Example 625, (S)-N-(4-((5-(4-(dimethylcarbamoyl)phenyl)-1-isopropyl-7-methyl-4,5,6,7-tetrahydro-1H-pyrazolo[4,3-c]pyridine-3-carboxamido)methyl)phenyl)-3,9-diazaspiro[5.5]undecane-3-carboxamide], the EC50 at STAT6 (setting [4]) worked out at 10 nM. In experiment [1] (setting [5]), this molecule gave an IC50 of 24 nM.

For `COC1(C)CN(C(=O)Nc2ccc(CNC(=O)c3nn(C(C)C)c4c3CN(c3ccc(C(=O)N(C)C)cn3)CC4)cc2)C1` [Example 165, 5-(5-(dimethylcarbamoyl)pyridin-2-yl)-1-isopropyl-N-(4-(3-methoxy-3-methylazetidine-1-carboxamido)benzyl)-4,5,6,7-tetrahydro-1H-pyrazolo[4,3-c]pyridine-3-carboxamide], on STAT6 (setting [2]), the EC50 came out at 14 nM. Moreover, inhibition in experiment [1] (setting [3]) was half-maximal at 156 nM (IC50).

`CC(CO)n1nc(C(=O)NCc2ccc(NC(=O)N(C)C)cc2)c2c1CCN(c1ccc(C(=O)N(C)C)cn1)C2` (racemic) [Example 351, rac-(R)-5-(5-(dimethylcarbamoyl)pyridin-2-yl)-N-(4-(3,3-dimethylureido)benzyl)-1-(1-hydroxypropan-2-yl)-4,5,6,7-tetrahydro-1H-pyrazolo[4,3-c]pyridine-3-carboxamide]: at STAT6 (setting [4]), the 50% effective concentration (EC50) is 73 nM. This molecule also came in with an IC50 in experiment [1] (setting [6]) of 129 nM.

Regarding `CC(C)n1nc(C(=O)NCc2ccc(NC(=O)N3CCO[C@@H](CO)C3)cc2)c2c1CCN(c1ccc(C(=O)N(C)C)cn1)C2` [Example 167, (R)-N-(4-((5-(5-(dimethylcarbamoyl)pyridin-2-yl)-1-isopropyl-4,5,6,7-tetrahydro-1H-pyrazolo[4,3-c]pyridine-3-carboxamido)methyl)phenyl)-2-(hydroxymethyl)morpholine-4-carboxamide], the EC50 on STAT6 (setting [2]) was determined as 29 nM. Also, the IC50 in experiment [1] (setting [3]) was determined as 154 nM.

With `CC(C1CC1)n1nc(C(=O)NCc2ccc(NC(=O)N(C)C)cc2)c2c1CCN(c1ccc(C(=O)N(C)C)cn1)C2` (single isomer, unassigned) [Example 237, rel-(R or S)-1-(1-cyclopropylethyl)-5-(5-(dimethylcarbamoyl)pyridin-2-yl)-N-(4-(3,3-dimethylureido)benzyl)-4,5,6,7-tetrahydro-1H-pyrazolo[4,3-c]pyridine-3-carboxamide], the EC50 at STAT6 (setting [4]) was 7 nM. Also, the IC50 in experiment [1] (setting [6]) stood at 83 nM.

For the molecule `CC(C)n1nc(C(=O)NCc2ccc(NC(=O)N(C)C)cc2)c2c1CCN(c1ccc(N3CC[C@@H](F)C3=O)cn1)C2` [Example 98, (R)-N-(4-(3,3-dimethylureido)benzyl)-5-(5-(3-fluoro-2-oxopyrrolidin-1-yl)pyridin-2-yl)-1-isopropyl-4,5,6,7-tetrahydro-1H-pyrazolo[4,3-c]pyridine-3-carboxamide], the half-maximal effective concentration (EC50) at STAT6 (setting [2]) amounted to 48 nM. In experiment [1] (setting [3]), the IC50 worked out at 573 nM.

For the molecule `CN(C)C(=O)Nc1ccc(CNC(=O)c2nn(CC(F)(F)F)c3c2CN(c2ccc(C(=O)N(C)C)cn2)CC3)cc1` [Example 31, 5-(5-(dimethylcarbamoyl)pyridin-2-yl)-N-(4-(3,3-dimethylureido)benzyl)-1-(2,2,2-trifluoroethyl)-4,5,6,7-tetrahydro-1H-pyrazolo[4,3-c]pyridine-3-carboxamide], at STAT6 (setting [2]), the EC50 was 7 nM. In addition, half-maximal inhibition in experiment [1] (setting [3]) (IC50) was put at 85 nM.

Turning to `CCC(C)n1nc(C(=O)NCc2ccc(NC(=O)N(C)C)cc2)c2c1CCN(c1ccc(C(=O)N(C)C)cn1)C2` (racemic) [Example 85, rac-(R)-1-(sec-butyl)-5-(5-(dimethylcarbamoyl)pyridin-2-yl)-N-(4-(3,3-dimethylureido)benzyl)-4,5,6,7-tetrahydro-1H-pyrazolo[4,3-c]pyridine-3-carboxamide], the EC50 on STAT6 (setting [2]) is 6 nM. Also, the IC50 in experiment [1] (setting [3]) was 90 nM.

For `CC(C)n1nc(C(=O)NCc2ccc(NC(=O)N3CCO[C@H](CO)C3)cc2)c2c1CCN(c1ccc(C(=O)N(C)C)cn1)C2` [Example 159, (S)-N-(4-((5-(5-(dimethylcarbamoyl)pyridin-2-yl)-1-isopropyl-4,5,6,7-tetrahydro-1H-pyrazolo[4,3-c]pyridine-3-carboxamido)methyl)phenyl)-2-(hydroxymethyl)morpholine-4-carboxamide], the EC50 on STAT6 (setting [2]) is 16 nM. For the same molecule, inhibition in experiment [1] (setting [3]) was half-maximal at 59 nM (IC50).

`CC(C)n1nc(C(=O)NCc2ccc(-c3ncc[nH]3)cc2)c2c1[C@H](C)CN(c1ncc(C(=O)N(C)C)cn1)C2` (single isomer, unassigned) [Example 549]: the EC50 on STAT6 (setting [4]) worked out at 99 nM. The molecule further gave an IC50 in experiment [1] (setting [5]) of 1100 nM.

On to `COc1nccc2c1CN(C(=O)c1ccc(N3CCc4c(c(C(=O)NCc5ccc(NC(=O)N(C)C)cc5)nn4C(C)C)C3)nc1)CC2` [Example 375, N-(4-(3,3-dimethylureido)benzyl)-1-isopropyl-5-(5-(8-methoxy-1,2,3,4-tetrahydro-2,7-naphthyridine-2-carbonyl)pyridin-2-yl)-4,5,6,7-tetrahydro-1H-pyrazolo[4,3-c]pyridine-3-carboxamide], for which, on STAT6 (setting [4]), the EC50 was 15 nM. In experiment [1] (setting [6]), this molecule had an IC50 of 1960 nM.

Consider `C[C@@H]1CN(c2ccc(C(=O)N(C)C)cn2)Cc2c(C(=O)NCc3ccc(NC(=O)N(C)C)cc3)nn(C3CCOCC3)c21` (single isomer, unassigned) [Example 556], for which the EC50 on STAT6 (setting [4]) was found to be 58 nM. The molecule also had an IC50 in experiment [1] (setting [5]) of 196 nM.

As to `CN(C)C(=O)Nc1ccc(CNC(=O)c2cnn3c2CN(c2ccc(C(=O)N(C)C)cn2)CC3)cc1` [Example 29, 5-(5-(dimethylcarbamoyl)pyridin-2-yl)-N-(4-(3,3-dimethylureido)benzyl)-4,5,6,7-tetrahydropyrazolo[1,5-a]pyrazine-3-carboxamide], the EC50 on STAT6 (setting [2]) came out at 2230 nM. Also, the IC50 in experiment [1] (setting [3]) was determined as 878 nM.

For `CNC1CN(C(=O)Nc2ccc(CNC(=O)c3nn(C(C)C)c4c3CN(c3ccc(C(=O)N(C)C)cc3)C[C@@H]4C)cc2F)C1` [Example 597, (S)-5-(4-(dimethylcarbamoyl)phenyl)-N-(3-fluoro-4-(3-(methylamino)azetidine-1-carboxamido)benzyl)-1-isopropyl-7-methyl-4,5,6,7-tetrahydro-1H-pyrazolo[4,3-c]pyridine-3-carboxamide], at STAT6 (setting [4]), the EC50 turned out to be 4 nM. The same molecule showed an IC50 in experiment [1] (setting [5]) of 28 nM.

In general, EC50 refers to the concentration that produces a half-maximal response. As a reminder, the IC50 is the concentration needed to halve the response being measured. Low values mean higher potency, high ones lower potency.

These data come from US20250320213A1, “Nitrogen-Containing Heterocyclic Compounds” (Pfizer Inc., priority 2024, published 2025).
